Measured values taken from PubChem BioAssay AID850 (SRMLSC, 2007).
Calls of active or inactive are those of the source. The rule behind the calls is not given here.

Key:
[1] = tested on: Saccharomyces cerevisiae growth inhibition, permissive control; experiment: yeast lifespan-shortening chemical project counter-assay, dose-response inhibition of growth under permissive conditions (AID 850);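 note: growth read as optical density after one day of incubation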
[2] = as above; conditions: Saccharomyces cerevisiae growth inhibition, permissive control, measured here: maximum growth inhibition, stronger effect = higher value

| Structure (SMILES) | IC50 [1] | inhibition ([2]; at 50 µM) [%] | other results |
| --- | --- | --- | --- |
| Cc1cc(=O)[nH]c(SCc2nc3ccccc3s2)n1 | > 100 µM (inactive) |  | inhibition ([2]; at 25 µM): 13% |
| CC1Cc2ccccc2N1C(=O)CSC1=NCCS1 (stereo not given) | > 100 µM (inactive) |  | inhibition ([2]; at 0.781 µM): 16.7% |
| CCOc1ccc(-c2[nH]ncc2Oc2cccc(OC)c2)c(O)c1 | > 100 µM (inactive) | 28.1 |  |
| c1ccc(-c2ccc(C(c3ccccc3)n3ccnc3)cc2)cc1 (stereo not given) | 0.793 µM |  | inhibition ([2]; at 3.125 µM): 94.4% |
| COC(=O)c1ccc(CSc2ccc3nnc(-c4cccc(F)c4)n3n2)o1 | > 100 µM (inactive) |  | inhibition ([2]; at 6.25 µM): 17.7% |
| O=C1C(=O)c2c(C(=O)c3ccccc3)coc2-c2ccccc21 | 10.3 µM | 99.6 |  |
| Cc1ccc2c(c1)C(=NC1CCCCC1)c1cc3ccccc3nc1-2 | > 100 µM (inactive) |  | inhibition ([2]; at 12.5 µM): 22.8% |
| CCc1cc(-c2n[nH]c(C)c2Oc2ccc(C(C)C)cc2)c(O)cc1O | 35 µM | 75.6 |  |
| Cc1ccc(N=Cc2cccc(O)c2O)c(C)c1 | 16 µM | 99.4 |  |
| Cc1[nH]n(-c2ccccc2)c(=O)c1/C=N/N1C(=O)c2ccc3c4c(ccc(c24)C1=O)CC3 | > 100 µM (inactive) |  | inhibition ([2]; at 0.781 µM): 8.51% |
| CC1=CC(=O)C=C(C)C1=NOS(=O)(=O)c1ccccc1 | 26.4 µM |  | inhibition ([2]; at 12.5 µM): 62.4% |
| O=C(O)c1ccccc1Nc1ccc([N+](=O)[O-])cc1 | 14.6 µM | 98 |  |
| CCc1cccc2c(C(=O)COC(=O)c3ccc([N+](=O)[O-])s3)c[nH]c12 | 28 µM | 99.4 |  |
| CCn1ncc(C2=NOC(C(=O)Nc3c(C)n(C)n(-c4ccccc4)c3=O)C2)c1C (stereo not given) | > 100 µM (inactive) |  | inhibition ([2]; at 0.195 µM): 6.76% |
| CC(NC(=O)/C(C#N)=C/c1ccc(Cl)c([N+](=O)[O-])c1)c1ccccc1 (stereo not given) | > 100 µM (inactive) | 15 |  |
| Cc1ccc(C(C[N+](=O)[O-])n2nc(C)cc2C)cc1 (stereo not given) | 13 µM | 99.2 |  |
| Cc1nc(Cl)c2oc3ccccc3c2n1 | > 100 µM (inactive) | 15.8 |  |
| COc1ccc(-c2cc(-c3ccccc3O)[nH]n2)cc1 | > 100 µM (inactive) |  | inhibition ([2]; at 1.563 µM): 3.65% |
| COc1ccc2c(C)nc(Nc3nc(C)c(C)c(=O)[nH]3)nc2c1 | 44.6 µM | 50.7 |  |
| COc1ccc(/C=C2/C(=O)ON=C2c2ccccc2)cc1OC | > 100 µM (inactive) |  | inhibition ([2]; at 25 µM): 27.4% |
| Cc1ccc(-n2nnc3c(=O)n(CC(=O)N4CCC(C)CC4)cnc32)cc1 | > 100 µM (inactive) |  | inhibition ([2]; at 25 µM): 17.4% |
| Fc1ccc(-c2ccc(-c3nn4c(-c5ccco5)nnc4s3)o2)cc1 | > 100 µM (inactive) |  | inhibition ([2]; at 6.25 µM): 13.4% |
| C=CCC1c2cccc(C(=O)O)c2C(=O)N1c1cccc(C)c1 (stereo not given) | 49.7 µM |  | inhibition ([2]; at 25 µM): 44.4% |
| CCOC(=O)/C(=N\Nc1cccc(C(F)(F)F)c1)N(CCOC)CCOC | > 100 µM (inactive) |  | inhibition ([2]; at 12.5 µM): -1.36% |
| CCOC(=O)CNC(=O)CSc1nnc(-c2ccco2)n1Cc1ccco1 | > 100 µM (inactive) |  | inhibition ([2]; at 0.781 µM): 14.2% |
| CC(C)(Oc1ccc(Cl)cc1)C(=O)NC1=NN(c2ccccc2)C(=O)C1 | 21.5 µM | 88.3 |  |
| O=C(O)CSc1cccc[n+]1[O-] | 28.7 µM | 94.2 |  |

| Structure (SMILES) | IC50 [1] | inhibition ([2]; at 50 µM) [%] | other results |
| --- | --- | --- | --- |
| CCCn1c(C)cc(C(=O)COC(=O)c2ccc[nH]c2=O)c1C | > 100 µM (inactive) | 17.4 |  |
| CCOc1cc(C2CC(=O)N3CN(C4CCCCC4)CSC3=C2C#N)ccc1O (stereo not given) | > 100 µM (inactive) |  | inhibition ([2]; at 0.781 µM): 8.66% |
| Clc1ccc(N/N=C/c2ccncc2)cc1Cl | > 100 µM (inactive) | 21.4 |  |
| CCOC(=O)c1c(NC(=S)Nc2ccc(Cl)cc2)sc2c1CCN(C)C2 | 8.2 µM |  | inhibition ([2]; at 25 µM): 99.8% |
| Cc1cc(C)cc(N=Cc2ccc([N+](=O)[O-])s2)c1 | 12.3 µM | 100 |  |
| Cc1ccc(N/N=C/c2c(O)cc(C)oc2=O)cc1 | 11.8 µM | 99.4 |  |
| CCOC(=O)C1C(C)N=C2SCC(=O)N2C1c1cccc(Br)c1 (stereo not given) | > 100 µM (inactive) |  | inhibition ([2]; at 12.5 µM): 12.2% |
| O=C1NC(c2ccccn2)Nc2sc3c(c21)CCC3 (stereo not given) | > 100 µM (inactive) |  | inhibition ([2]; at 0.195 µM): 25.5% |
| COc1ccc(N)c2c1C(=O)c1ccccc1C2=O | > 100 µM (inactive) |  | inhibition ([2]; at 25 µM): 22.5% |
| Cc1nn(-c2ccc(F)cc2)c2sc(C(=O)O)cc12 | 49.1 µM | 60.6 |  |
| O=C(O)c1cc2ccc3ccccc3c2oc1=O | 32 µM | 64.3 |  |
| O=C(O)c1cc(-c2ccc(/C=N/Nc3ccc(Cl)cc3)o2)ccc1Cl | 4.41 µM | 98.8 |  |
| CCN1CCN(C(=O)C(NS(=O)(=O)c2ccc3nc(C)sc3c2)C(C)C)CC1 (stereo not given) | > 100 µM (inactive) |  | inhibition ([2]; at 0.098 µM): 16.9% |
| CCc1cccc(C)c1NC(=S)NCc1ccc2[nH]c(C)cc2c1 | > 100 µM (inactive) | 8.77 |  |
| O=C(O)c1ccc(N(c2ccccc2)c2ccccc2)cc1 | > 100 µM (inactive) |  | inhibition ([2]; at 0.195 µM): 10.2% |
| Cc1ccc2nc(-c3ccc(NS(C)(=O)=O)cc3)cc(-c3ccccc3)c2c1 | > 100 µM (inactive) | 22.2 |  |
| O=C1Cc2ccccc2C(=O)N1CCc1ccccc1 | > 100 µM (inactive) |  | inhibition ([2]; at 0.781 µM): 20.7% |
| Oc1c(CN2CCc3ccccc3C2)cc(Cl)c2cccnc12 | 11.5 µM | 101 |  |
| O=C(Nc1cc(C(F)(F)F)ccc1Cl)C(Sc1cccc[n+]1[O-])c1ccccc1 (stereo not given) | 6.31 µM | 99.8 |  |
| O=C(COc1ccccc1)NNC(=S)NC(=O)c1ccc(Cl)cc1Cl | 25.7 µM | 84.4 |  |
| Cc1ccc(-n2c(C)cc(C(=O)COC(=O)c3ccc[nH]c3=O)c2C)cc1 | 27.7 µM | 67 |  |
| O=C(OCn1ncc(Br)c(Br)c1=O)c1ccccc1Cl | > 100 µM (inactive) |  | inhibition ([2]; at 0.781 µM): 10.5% |
| C/C(=N\NC(=O)c1ccc(CSc2cccc3cccnc23)cc1)C1CCCCC1 | 29.7 µM | 93.4 |  |
| Cc1cc(C)nc(N/N=C/C2=C(N3CCOCC3)C(=C\c3ccc(Cl)cc3)/CC2)n1 | > 100 µM (inactive) |  | inhibition ([2]; at 3.125 µM): 5.26% |
| Cc1nnc(C)n1/N=C/c1cc(Br)cc(Br)c1O | 0.324 µM | 99.2 |  |
| CCCCCCOC(=O)Sc1nc2ccccc2o1 | 11.7 µM | 99 |  |
| Cn1c(C(C#N)C(=O)c2ccco2)nc2ccccc21 (stereo not given) | > 100 µM (inactive) | 17.5 |  |

| Structure (SMILES) | IC50 [1] | inhibition ([2]; at 50 µM) [%] | other results |
| --- | --- | --- | --- |
| COc1ccc(OCc2nnc3n2N=C(c2ccc(OC)cc2)CS3)cc1 | > 100 µM (inactive) |  | inhibition ([2]; at 0.781 µM): 20.9% |
| COc1cc(CNCCN2CCOCC2)ccc1OCc1cccc(Cl)c1 | > 100 µM (inactive) |  | inhibition ([2]; at 25 µM): 12.3% |
| O=C(Nc1ccc(Cl)cc1)ON=C1CCCC1 | 7.46 µM |  | inhibition ([2]; at 25 µM): 99.4% |
| O=C(O)C1C2C=CC(O2)C1C(=O)NC1CCCc2ccccc21 (stereo not given) | > 100 µM (inactive) |  | inhibition ([2]; at 6.25 µM): 10.9% |
| COc1cc2c(cc1OC)CN(C(=O)CSc1nnc3scc(-c4ccccc4)n13)CC2 | > 100 µM (inactive) |  | inhibition ([2]; at 0.781 µM): 17.1% |
| C=CCn1c2ccccc2c2nnc(SCN3C(=O)c4ccccc4C3=O)nc21 | > 100 µM (inactive) |  | inhibition ([2]; at 6.25 µM): 12.7% |
| COC(=O)Cc1cc(=O)n(-c2nc3ccccc3[nH]2)[nH]1 | 45.1 µM | 64.1 |  |
| O=C1c2ccccc2NC(c2ccc(-c3ccc(Br)cc3)o2)N1O (stereo not given) | 18.9 µM | 99 |  |
| CCOCCCNC(=O)c1ccc(Br)cc1 | > 100 µM (inactive) |  | inhibition ([2]; at 1.563 µM): 27.6% |
| Cc1ccc(/C(N)=N/OC(=O)c2ccc(C)cc2Cl)cc1 | 8.59 µM | 98.4 |  |
| O=C(O)c1cc2c(s1)-c1ccccc1CC2 | 50.5 µM | 47.3 |  |
| Cc1ccc(Oc2nc(CN3CCOCC3)nc3sc4c(c23)CCC(C)C4)cc1C (stereo not given) | 23.5 µM | 93.4 |  |
| CC1CCN(c2nc(/C=C/c3ccccc3)nc3ccccc23)CC1 | 22.2 µM | 100 |  |
| CCCCOC(=O)Sc1nc2ccccc2o1 | 14.5 µM | 101 |  |
| C=C(C)COc1ccc(-c2[nH]ncc2-c2ccccc2OC)c(O)c1 | > 100 µM (inactive) |  | inhibition ([2]; at 0.781 µM): 23% |
| O=C(/C(=C/O)N=Nc1ccccc1)c1ccncc1 | 13.3 µM | 100 |  |
| Cc1cccc(/C(N)=N/OC(=O)c2ccc(F)cc2)c1 | > 100 µM (inactive) | 23.4 |  |
| Cc1cc2nc(C)n3c4ccccc4nc3n2n1 | 35.3 µM | 63.4 |  |
| COc1ccc(OC)c(C2CC(=O)N3CN(c4cccc(Cl)c4)CSC3=C2C#N)c1 (stereo not given) | > 100 µM (inactive) |  | inhibition ([2]; at 25 µM): 15.2% |
| COc1cccc2c(=O)c3c(cnn3C)n(C)c12 | > 100 µM (inactive) |  | inhibition ([2]; at 25 µM): 21.2% |
| S=C(Nc1ccc(Oc2ccccc2)cc1)NC1CCCCCC1 | > 100 µM (inactive) |  | inhibition ([2]; at 0.391 µM): 19.9% |
| Cc1ccnn2cc3c(=O)n(C)c(=O)n(C)c3c12 | 37.6 µM | 64.1 |  |
| Cc1nn(-c2cccc(C(F)(F)F)c2)c(Cl)c1/C=N/Nc1cccc(C(=O)O)c1 | 41.2 µM | 81.6 |  |
| Fc1ccc(N/N=C2/CC(c3ccccc3)Oc3ccccc32)c(F)c1 (stereo not given) | 25.9 µM | 95.9 |  |
| Cc1ccc(C(=O)Oc2ccc(Cl)c3cccnc23)cc1[N+](=O)[O-] | 40.6 µM | 73.3 |  |
| COc1ccc(Br)cc1C1CC(=O)N2CN(C)CSC2=C1C#N (stereo not given) | > 100 µM (inactive) |  | inhibition ([2]; at 1.563 µM): 17% |
